Assay results taken from patent publication EP0286364B1, “Substituted Di-t-Butylphenols” (RIKER LABORATORIES, INC., priority 1987, dated 1988).

Tested on: male Hartley strain guinea pigs
Experiment: Konzett-Rossler in vivo test, antigen challenge of sensitized guinea pigs
Details: dosed orally, about 5 to 40 mg/kg, suspension in 4% aqueous acacia; ovalbumin 300 µg/kg intravenously 30 minutes later; bronchoconstrictor response
Experimental: The oral activity of compounds of Formula I may be demonsrated using the Konzett-Rossler in vivo test method. The activity is determined according to the procedure which follows. The Konzett-Rossler technique (H.Konzett and R. Rossler, Naunyn-Schmiedbergs Arch. Pharmakol., 195, 71-74, 1940 is used to assess the effect of compounds of Formula I of the invention on antigen challenge of male Hartley strain guinea pigs (350-500g). Fourteen days after sensitization with ovalbumin (50 mg/kg intraperitoneally) guinea pigs are anesthetized with pentobarbital (70 mg/kg intraperitoneally) and spontaneous respiration is eliminated with succinylcholine (2 mg/kg intra-peritoneally). The trachea is cannulated and respiration is maintained under positive pressure with a minature ventilator (5 ml/breath, 87 breaths/minute, 10 cm water). Bronchoconstrictor responses are represented as increased excursions of the tracing on a physiological recorder of air overflow to the lungs measured by a pneumotachograph in series with a differential pressure transducer. The guinea pigs are pretreated with an antihistamine, for example, chlorpheniramine, and are then dosed orally at a level of about 5 to 40 mg/kg with a suspension of a compound of Formula I of the invention in 4% aqueous acacia. The animals are challenged with ovalbumin (300 »g/kg intravenously) thirty (30) minutes later.

In the case of `CC(C)(C)c1cc(C(=O)Nc2cccc(-c3nnn[nH]3)c2)cc(C(C)(C)C)c1O.O` [Example 7, 5-[3-(3,5-di-t-butyl-4-hydroxybenzamido)phenyl]tetrazole hydrate], the oral activity is reported as “good oral activity”.
